In patent publication US20260035359A1, “HERBICIDAL IMIDAZOLE COMPOUNDS” (SYNGENTA CROP PROTECTION AG, priority 2022, published 2026):

Tests used:
Type in all cases: in vivo
[1] = tested on: Amaranthus retoflexus (AMARE); assay: Pre-emergence herbicidal glasshouse test; conditions: 250 g/ha, sprayed after one day cultivation, evaluated after 13 days
How it was run: (§1)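 Glasshouse spray test, 250 g/ha unless otherwise stated, applied 1 d (pre-emergence) or 8 d (post-emergence) after sowing. Percentage damage is scored at 13 d, banded 1 (0-20%) to 5 (81-100%).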

[2] = tested on: Ipomoea hederacea (IPOHE); assay: Pre-emergence herbicidal glasshouse test; conditions: 250 g/ha, sprayed after one day cultivation, evaluated after 13 days
How it was run: as §1

[3] = tested on: Amaranthus pa/meri (AMAPA); assay: Pre-emergence herbicidal glasshouse test; conditions: 250 g/ha, sprayed after one day cultivation, evaluated after 13 days
How it was run: as §1

[4] = tested on: Echinochloa crus-gali (ECHCG); assay: Pre-emergence herbicidal glasshouse test; conditions: 250 g/ha, sprayed after one day cultivation, evaluated after 13 days
How it was run: as §1

Setaria faberi (SETFA) [5] = assay: Pre-emergence herbicidal glasshouse test; conditions: 250 g/ha, sprayed after one day cultivation, evaluated after 13 days
How it was run: as §1

[6] = tested on: Amaranthus retoflexus (AMARE); assay: Post-emergence herbicidal glasshouse test; conditions: 250 g/ha, sprayed after 8 days cultivation, evaluated after 13 days
How it was run: as §1

[7] = tested on: Ipomoea hederacea (IPOHE); assay: Post-emergence herbicidal glasshouse test; conditions: 250 g/ha, sprayed after 8 days cultivation, evaluated after 13 days
How it was run: as §1

[8] = tested on: Amaranthus pa/meri (AMAPA); assay: Post-emergence herbicidal glasshouse test; conditions: 250 g/ha, sprayed after 8 days cultivation, evaluated after 13 days
How it was run: as §1

[9] = tested on: Echinochloa crus-gali (ECHCG); assay: Post-emergence herbicidal glasshouse test; conditions: 250 g/ha, sprayed after 8 days cultivation, evaluated after 13 days
How it was run: as §1

Setaria faberi (SETFA) [10] = assay: Post-emergence herbicidal glasshouse test; conditions: 250 g/ha, sprayed after 8 days cultivation, evaluated after 13 days
How it was run: as §1

CC(C)(O)CCc1nc(C(F)(F)F)cn1Cc1ncc(Cl)cn1 [Compound 1.086]
2 (2=21-40%): percentage damage caused to the plant, AMARE [6] | percentage damage caused to the plant, AMAPA [8]
1 (1=0-20%): percentage damage caused to the plant, AMARE [1] | percentage damage caused to the plant, AMAPA [3] | percentage damage caused to the plant, ECHCG [4] | percentage damage caused to the plant, SETFA (Setaria faberi (SETFA) [5]) | percentage damage caused to the plant, ECHCG [9] | percentage damage caused to the plant, SETFA (Setaria faberi (SETFA) [10])
3 (3=41-60%): percentage damage caused to the plant, IPOHE [2] | percentage damage caused to the plant, IPOHE [7]

FC(F)COCc1nc(C(F)(F)F)cn1Cc1ncc(Cl)cn1 [Compound 1.022]
2 (2=21-40%): percentage damage caused to the plant, AMAPA [3]
3 (3=41-60%): percentage damage caused to the plant, AMARE [1] | percentage damage caused to the plant, AMARE [6] | percentage damage caused to the plant, IPOHE [7] | percentage damage caused to the plant, AMAPA [8]
4 (4=61-80%): percentage damage caused to the plant, IPOHE [2]
1 (1=0-20%): percentage damage caused to the plant, ECHCG [4] | percentage damage caused to the plant, SETFA (Setaria faberi (SETFA) [5]) | percentage damage caused to the plant, ECHCG [9] | percentage damage caused to the plant, SETFA (Setaria faberi (SETFA) [10])

OCC(O)CCc1nc(C(F)(F)F)cn1Cc1ncc(Cl)cn1 (centres unmarked) [Compound 1.011, 4-[1-[(5-chloropyrimidin-2-yl)methyl]-4-(trifluoromethyl)imidazol-2-yl]butane-1,2-diol]
3 (3=41-60%): percentage damage caused to the plant, IPOHE [7]
2 (2=21-40%): percentage damage caused to the plant, AMARE [6] | percentage damage caused to the plant, AMAPA [8]
1 (1=0-20%): percentage damage caused to the plant, AMARE [1] | percentage damage caused to the plant, IPOHE [2] | percentage damage caused to the plant, AMAPA [3] | percentage damage caused to the plant, ECHCG [4] | percentage damage caused to the plant, SETFA (Setaria faberi (SETFA) [5]) | percentage damage caused to the plant, ECHCG [9] | percentage damage caused to the plant, SETFA (Setaria faberi (SETFA) [10])

CSCCc1nc(C(F)(F)F)cn1Cc1ncc(Cl)cn1 [Compound 1.083]
1 (1=0-20%): percentage damage caused to the plant, ECHCG [4] | percentage damage caused to the plant, SETFA (Setaria faberi (SETFA) [5]) | percentage damage caused to the plant, ECHCG [9] | percentage damage caused to the plant, SETFA (Setaria faberi (SETFA) [10])
4 (4=61-80%): percentage damage caused to the plant, AMARE [1] | percentage damage caused to the plant, AMARE [6] | percentage damage caused to the plant, IPOHE [7]
3 (3=41-60%): percentage damage caused to the plant, AMAPA [3] | percentage damage caused to the plant, AMAPA [8]
5 (5=81-100%): percentage damage caused to the plant, IPOHE [2]

CC(F)(F)CCc1nc(C(F)(F)F)cn1Cc1ncc(Cl)cn1 [Compound 1.085]
4 (4=61-80%): percentage damage caused to the plant, IPOHE [7] | percentage damage caused to the plant, ECHCG [9]
5 (5=81-100%): percentage damage caused to the plant, AMARE [1] | percentage damage caused to the plant, IPOHE [2] | percentage damage caused to the plant, AMAPA [3] | percentage damage caused to the plant, ECHCG [4] | percentage damage caused to the plant, SETFA (Setaria faberi (SETFA) [5]) | percentage damage caused to the plant, AMARE [6] | percentage damage caused to the plant, AMAPA [8] | percentage damage caused to the plant, SETFA (Setaria faberi (SETFA) [10])

FC(F)(F)CCCc1nc(Cl)cn1Cc1ncc(Cl)cn1 [Compound 1.001, 5-chloro-2-[[4-chloro-2-(4,4,4-trifluorobutyl)imidazol-1-yl]methyl]pyrimidine]
1 (1=0-20%): percentage damage caused to the plant, AMARE [1] | percentage damage caused to the plant, IPOHE [2] | percentage damage caused to the plant, ECHCG [4] | percentage damage caused to the plant, SETFA (Setaria faberi (SETFA) [5]) | percentage damage caused to the plant, ECHCG [9] | percentage damage caused to the plant, SETFA (Setaria faberi (SETFA) [10])
2 (2=21-40%): percentage damage caused to the plant, AMAPA [3] | percentage damage caused to the plant, AMARE [6] | percentage damage caused to the plant, IPOHE [7] | percentage damage caused to the plant, AMAPA [8]

C=CCCc1nc(C(F)(F)F)cn1Cc1ncc(Cl)cn1 [Compound 1.020, 2-[[2-but-3-enyl-4-(trifluoromethyl)imidazol-1-yl]methyl]-5-chloro-pyrimidine]
2 (2=21-40%): percentage damage caused to the plant, IPOHE [7] | percentage damage caused to the plant, AMAPA [8] | percentage damage caused to the plant, ECHCG [9]
3 (3=41-60%): percentage damage caused to the plant, AMARE [6]
5 (5=81-100%): percentage damage caused to the plant, AMARE [1] | percentage damage caused to the plant, AMAPA [3] | percentage damage caused to the plant, ECHCG [4]
1 (1=0-20%): percentage damage caused to the plant, SETFA (Setaria faberi (SETFA) [10])
4 (4=61-80%): percentage damage caused to the plant, IPOHE [2] | percentage damage caused to the plant, SETFA (Setaria faberi (SETFA) [5])

CCCCc1nc(C(F)F)cn1Cc1ncc(Cl)cc1F [Compound 1.054, 2-[[2-butyl-4-(difluoromethyl)imidazol-1-yl]methyl]-5-chloro-3-fluoro-pyridine]
1 (1=0-20%): percentage damage caused to the plant, IPOHE [2] | percentage damage caused to the plant, ECHCG [4] | percentage damage caused to the plant, SETFA (Setaria faberi (SETFA) [5]) | percentage damage caused to the plant, ECHCG [9] | percentage damage caused to the plant, SETFA (Setaria faberi (SETFA) [10])
3 (3=41-60%): percentage damage caused to the plant, AMARE [1] | percentage damage caused to the plant, AMARE [6]
4 (4=61-80%): percentage damage caused to the plant, AMAPA [3]
2 (2=21-40%): percentage damage caused to the plant, IPOHE [7] | percentage damage caused to the plant, AMAPA [8]

N#CC1(c2nc(C(F)(F)F)cn2Cc2ncc(Cl)cn2)CC1 [Compound 1.060]
2 (2=21-40%): percentage damage caused to the plant, AMARE [1] | percentage damage caused to the plant, AMAPA [3] | percentage damage caused to the plant, AMARE [6] | percentage damage caused to the plant, IPOHE [7] | percentage damage caused to the plant, AMAPA [8]
3 (3=41-60%): percentage damage caused to the plant, IPOHE [2]
1 (1=0-20%): percentage damage caused to the plant, ECHCG [4] | percentage damage caused to the plant, SETFA (Setaria faberi (SETFA) [5]) | percentage damage caused to the plant, ECHCG [9] | percentage damage caused to the plant, SETFA (Setaria faberi (SETFA) [10])

N#CC1(c2nc(C(F)(F)F)cn2Cc2ncc(Cl)cc2F)CC1 [Compound 1.069]
5 (5=81-100%): percentage damage caused to the plant, AMARE [1]
4 (4=61-80%): percentage damage caused to the plant, IPOHE [2] | percentage damage caused to the plant, AMAPA [3] | percentage damage caused to the plant, AMARE [6] | percentage damage caused to the plant, IPOHE [7] | percentage damage caused to the plant, AMAPA [8]
1 (1=0-20%): percentage damage caused to the plant, ECHCG [4] | percentage damage caused to the plant, SETFA (Setaria faberi (SETFA) [5]) | percentage damage caused to the plant, ECHCG [9] | percentage damage caused to the plant, SETFA (Setaria faberi (SETFA) [10])

CS(=O)(=O)CCc1nc(C(F)(F)F)cn1Cc1ncc(Cl)cn1 [Compound 1.048]
5 (5=81-100%): percentage damage caused to the plant, AMARE [1] | percentage damage caused to the plant, IPOHE [2]
1 (1=0-20%): percentage damage caused to the plant, ECHCG [4] | percentage damage caused to the plant, SETFA (Setaria faberi (SETFA) [5]) | percentage damage caused to the plant, ECHCG [9] | percentage damage caused to the plant, SETFA (Setaria faberi (SETFA) [10])
4 (4=61-80%): percentage damage caused to the plant, AMAPA [3] | percentage damage caused to the plant, AMARE [6] | percentage damage caused to the plant, IPOHE [7] | percentage damage caused to the plant, AMAPA [8]
